Reference: US20080318977A1, “Condensed Pyridines as Kinase Inhibitors” (Palau Pharma, S.A., priority 2004, published 2008)

molecular target: T1, p38α (Homo sapiens, UniProt Q16539); test: Inhibition of p38α enzyme activity (IMAP fluorescence polarisation kinase assay); type: biochemical; details: at 1 μM compound; ATP 20 μM; 2 h at RT
T1 construct: GST-tagged fusion protein corresponding to full-length human p38α; purchased Upstate 14-251; host or cells: E. coli
Method: Inhibition of p38α Enzyme Activity:
Compound stocks in 100% DMSO are first diluted in DMSO to a concentration of 1×10^−3 up to 3.2×10^−8 M and then further diluted in kinase assay buffer (10 mM Tris-HCl, pH 7.2, 10 mM MgCl2, 0.01% tween 20, 0.05% NaN3, 1 mM dithiothreitol) to a concentration range of 4×10^−5 up to 1.3×10^−9 M. Of each compound solution 5 μL is transferred into a 384-wells black Optiplate (Packard, 6007279), followed by the addition of 5 μL of ATP (Boehringer, 519987), 5 μL of Fluorescein-labeled EGFR (Epidermal Growth Factor Receptor) peptide substrate and 5 μL of active p38 cc kinase (GST-tagged fusion protein corresponding to full-length human p38α; expressed in E. coli by Upstate, 14-251), all diluted in kinase assay buffer (see final concentrations in Table 1). The mixture is incubated for 2 h at room temperature (RT). The reaction is stopped by the addition of 60 μL of IMAP binding reagent, which has been diluted 400-fold in IMAP binding buffer (stock concentration 5 times diluted in Milli Q). After incubation for 30 min at RT, FP is measured on an Analyst™ multimode fluorescence plate reader (Molecular Devices) at excitation wavelength of 485 nm and emission wavelength of 530 nm (1 sec/well).
Data handling is performed as follows: percentage effects are calculated based on no-p38-enzyme-addition as the maximum inhibitory effect and with p38 enzyme addition as the minimum inhibitory effect. In each experiment, individual compound concentrations are tested in duplicate and percentage effect is calculated for each concentration.

T1 sequence (Q16539 whole entry, the tested form may be a part): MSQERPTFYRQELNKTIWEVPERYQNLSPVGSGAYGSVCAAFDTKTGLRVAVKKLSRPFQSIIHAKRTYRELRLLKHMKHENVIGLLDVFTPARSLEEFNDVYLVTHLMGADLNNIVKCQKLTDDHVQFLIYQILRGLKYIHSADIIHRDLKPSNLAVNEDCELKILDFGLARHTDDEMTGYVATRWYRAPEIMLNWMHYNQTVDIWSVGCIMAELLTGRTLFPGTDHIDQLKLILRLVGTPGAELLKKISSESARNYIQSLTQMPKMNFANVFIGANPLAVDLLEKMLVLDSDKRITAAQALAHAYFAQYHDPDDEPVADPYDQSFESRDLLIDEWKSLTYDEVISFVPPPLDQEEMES

inhibition at 1 µM | Compound
> 50% | Cc1nsc2nc(-c3ccc(F)cc3)c(-c3ccnc(NCC4CC4)n3)cc12 [Example 43, Cyclopropylmethyl-{4-[6-(4-fluoro-phenyl)-3-methyl-isothiazolo[5,4-b]pyridin-5-yl]-pyrimidin-2-yl}-amine]
> 50% | COCCCNc1nccc(-c2cc3c(C)nsc3nc2-c2ccc(F)cc2)n1 [Example 44, {4-[6-(4-Fluoro-phenyl)-3-methyl-isothiazolo[5,4-b]pyridin-5-yl]-pyrimidin-2-yl}-(3-methoxy-propyl)-amine]
> 50% | Cc1nsc2nc(-c3ccc(F)cc3)c(-c3ccnc(N[C@@H](C)c4ccccc4)n3)cc12 [Example 45, (S)-{4-[6-(4-Fluoro-phenyl)-3-methyl-isothiazolo[5,4-b]pyridin-5-yl]-pyrimidin-2-yl}-(1-phenyl-ethyl)-amine]
> 50% | COc1ccc(-c2nc3cc[nH]c3cc2-c2ccnc(NCC3CC3)n2)cc1 [Example 46, Cyclopropylmethyl-{4-[5-(4-methoxy-phenyl)-1H-pyrrolo[3,2-b]pyridin-6-yl]-pyrimidin-2-yl}-amine]
> 50% | COc1ccc(-c2nc3cc[nH]c3cc2-c2ccnc(N[C@@H](C)c3ccccc3)n2)cc1 [Example 47, (S)-{4-[5-(4-Methoxy-phenyl)-1H-pyrrolo[3,2-b]pyridin-6-yl]-pyrimidin-2-yl}-(1-phenyl-ethyl)-amine]
> 50% | Cc1nc2cc(-c3ccnc(NCC4CC4)n3)c(-c3ccc(F)cc3)nc2s1 [Example 52, Cyclopropylmethyl-{4-[5-(4-fluoro-phenyl)-2-methyl-thiazolo[5,4-b]pyridin-6-yl]-pyrimidin-2-yl}-amine]
> 50% | Fc1ccc(-c2nc3cn[nH]c3c(-c3ccc(F)cc3)c2-c2ccncc2)cc1 [Example 53, 5,7-Bis-(4-fluoro-phenyl)-6-pyridin-4-yl-1H-pyrazolo[4,3-b]pyridine]
> 50% | O=C(NCCO)c1n[nH]c2c(-c3ccc(F)cc3)c(-c3ccncc3)c(-c3ccc(F)cc3)nc12 [Example 54, 5,7-Bis-(4-fluoro-phenyl)-6-pyridin-4-yl-1H-pyrazolo[4,3-b]pyridine-3-carboxylic acid (2-hydroxy-ethyl)-amide]
> 50% | Cc1nc2cc(-c3ccnc(N[C@@H](C)c4ccccc4)n3)c(-c3ccc(F)cc3)nc2s1 [Example 56, (S)-{4-[5-(4-Fluoro-phenyl)-2-methyl-thiazolo[5,4-b]pyridin-6-yl]-pyrimidin-2-yl}-(1-phenyl-ethyl)-amine]
